What was measured:
[1] = Microsomal stability in rat liver microsomes; type: in vitro ADME; settings: rat liver microsomes 0.5 mg/ml, 1 mM NADPH, ~500 ng/ml compound, 37° C.
Procedure: Frozen Sprague-Dawley rat liver microsomes (RLM) were thawed on ice and gently mixed before use. The final reaction mixture consisted of a nitrone compound of this invention (at ˜500 ng/ml), 1 mM NADPH, and 0.5 mg/ml of RLM protein in 0.1 M PBS (pH7.4), with organic solvent concentration not exceeding 1% (v/v). Per set of incubations, a positive control compound was included. The mixture was first pre-incubated 3 to 5 minutes at 37° C. without NADPH, and the reaction was then initialized by the addition of NADPH and incubated at 37° C. for up to 30 minutes. An aliquot of the reaction mixture was sampled at the initiation of the reaction and at designated time after reaction started. The drawn samples were quenched with acetonitrile, diluted with mobile phase to ensure the detection of test article in the linear range, and analyzed by LC/MS/MS. Half-life or percentage of remaining nitrone compound was calculated using standard methods. A similar method, or a slight variation of it, was used to test the stability of nitrones in human liver microsomes (HLM).

[2] = DPPH free radical-scavenging/antioxidant assay; type: biochemical; settings: 50 μM DPPH in 80% methanol; 24 h time point; read-out: EC50 (concentration at which a compound reduces by 50% the peak absorbance of DPPH at 520 nm)
How it was run: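 Compounds diluted 100-fold from DMSO stocks into 50 μM DPPH in 80% methanol; absorbance at 520 nm followed kinetically to steady state, with the 24 h reading used. EC50 interpolated from OD520 versus concentration; Trolox, BHA, PBN and S-PBN as positive controls, DMSO as vehicle.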

[3] = Plasma protein binding (equilibrium dialysis), human plasma; type: in vitro ADME; settings: 1 μg/mL in plasma, dialysis vs phosphate buffer pH 7.4 overnight at 37° C., read-out: Plasma Protein Binding % Bound Human (converted)
Procedure: (§1) Nitrone compounds of this invention were individually dissolved in DMSO to make a stock solution of 1 mg/mL. The compound was spiked into plasma to achieve a final concentration of 1 μg/mL. Spiked plasma and phosphate buffer (0.1M, pH 7.4), 200 μl each, were added to the opposite sides of the membrane in a 96-well equilibrium dialyzer. The dialyzer plate was then covered and equilibrated overnight at 37° C. on an orbital shaker. Aliquots were taken from the plasma and the buffer compartments and prepared by adding blank plasma to samples from the buffer compartments and drug-free phosphate buffer to samples from the plasma compartments to eliminate the matrix effects. The samples were extracted using protein precipitation procedure by adding CH3CN. The samples were analyzed using a LC/MS/MS method. The percentage of free and bound nitrone compound were calculated according to the following formula:
(§2) %Free=[Free Drug/Total Drug]*100=[(Peak Area)buffer/(Peak Area)serum]*100%Bound=100%Free

[4] = Plasma protein binding (equilibrium dialysis), rat plasma; type: in vitro ADME; settings: 1 μg/mL in plasma, dialysis vs phosphate buffer pH 7.4 overnight at 37° C., read-out: Plasma Protein Binding % Bound Rat (converted)
Procedure: as §1, §2

[5] = Pharmacokinetic evaluation following intravenous and oral administration in rats; type: in vivo; settings: male, Sprague-Dawley; for Cmax / Tmax / bioavailability: 5 mg/kg; for Cmax: rat plasma; for Cmax / Tmax: oral gavage, 2 mg/mL at 2.5 mL/kg; for clearance / Vd / Tmax / bioavailability / half-life: plasma, rat; for clearance / Vd / half-life: 1 mg/kg; for clearance / Vd: intravenous administration, 1 mg/mL at 1.0 mL/kg; for clearance: read-out: CI (clearance) (converted); for Vd: read-out: Vd (volume of distribution); for bioavailability: po 2 mg/mL at 2.5 mL/kg vs iv 1 mg/mL at 1.0 mL/kg, dose-normalized, read-out: F (%) oral bioavailability; for half-life: intravenous, read-out: T1/2 elimination half life (converted)
How it was run: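 Male Sprague-Dawley rats, fasted, dosed iv (1 mg/mL formulation, 1.0 mL/kg, jugular or tail vein) or by oral gavage (2 mg/mL suspension, 2.5 mL/kg). Plasma sampled from 2 min to 480 min, some to 24 h, and quantified by LC-MS/MS (MRM). Parameters from noncompartmental analysis.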

[6] = test system: carrageenan-sensitized inflammatory model of rat; experiment: Carrageenan-sensitized thermal hyperalgesia (Hargreaves test); type: in vivo; settings: 30 mg/kg oral, data not shown
Procedure: In this experiment, animals were habituated to the test environment for 2 days. Each rat was individually placed on a transparent perplex glass floor, covered with a plastic box (10×10×18 cm), and allowed 0.5-1 hr to habituate. After the acclimation period, basal thermal withdrawal latency (PWL, time interval between heat stimulation and paw withdrawal) was measured by exposing the plantar surface of a rats hind paw to a beam of radiant heat generated from a focused projection bulb through a transparent perplex glass surface (Hargreaves test; Hargreaves, K. R., Dubner, R., Brown, F., Flores, C. & Joris, J.: A new and sensitive method for measuring thermal nociception in cutaneous hyperalgesia. Pain, 32: 77-88, 1988). The PWL was averaged from at least two trials separated by a 2 min interval. A timer was used to measure the withdrawal latency and a cut of time of 20-sec was used to prevent tissue damage. Before the test on STZ-diabetic rats, the intensity of the radiating heat was adjusted to the level that caused naive animal to withdraw its paw at around 10 seconds.
After a stable basal PWL was obtained, the animals were briefly anesthetized with isoflurane (2-5% to effect). One side of their hind paws received an intraplantar injection of lambda carrageenan (2 mg in 100 microliter sterile saline, Sigma, St. Louis, Mo.). The contralateral side received no injection and served as an intra-subject control. The animals were then returned to their home cages and transferred to the individual testing chambers for heat thermal hyperalgesic testing, 2.5 hr after carrageenan injection. 3-hr post-carrageenan injection, PWLs of both hind paws (i.e., ipsilateral and contralateral) were measured at several time points post-carrageenan injection (15-min to 24-hr).
For compound testing, rats were randomly enrolled into groups that, immediately after the 3-hr post-carrageenan PWL was obtained, received oral dosing of Compound 62 (50 mg/kg), Compound 63 (50 mg/kg), vehicle (1 ml/kg), or indomethacin (30 mg/kg). Compound 62 and Compound 63 were prepared as a suspension in vehicle (96% of 0.5% CMC and 4% of 10% Tween 80) while indomethacin was prepared as a 30 mg/ml in normal saline.

CCI rats = experiment: Mechanical allodynia in mononeuropathic pain model (chronic constrictive injury, CCI, Bennett model); type: in vivo, SD rats; settings: for PWT ipsilateral hind paw (von Frey): 50 mg/kg p.o. single dose, mean ± SEM; for anti-allodynic effect on ipsilateral hind paw vs vehicle (in words): single dose 50 mg/kg, p.o.
Excerpt: Adult male SD rats weighing 250-300 gm (Charles River Laboratories, San Diego, Calif.) were used. The animal room was lighted artificially at a 12-hr light-dark cycle (7:00 A.M. to 7:00 P.M) with water and food supply ad libitum. Animals were allocated randomly into groups. Seven days before establishing the mononeuropathic pain disease model, rats were trained on a metal mesh floor, covered with a plastic box (10×10×18 cm) 1-2 hr per day to habituate. During the habituating phase, non-painful tactile stimulation on the plantar surface of each hind paw was induced by a set of calibrated von Frey filaments, through the mesh floor, as described in example 2.
Following the 7-day training phase, the animals were anesthetized by i.p. injection of sodium pentobarbital (65 mg/kg, Abbott Lab, Chicago, Ill.). Under aseptic procedures, the skin of the left thigh was cut open for ˜2 cm. Mid-thigh level of the common sciatic nerve was exposed after blunt separation of the muscles. Two 4-0 silk and one 4-0 chromic gut sutures (both from Ethicon, Somerville, N.J.) were loosely ligated around the nerve, with a 1-1.5 mm interval between each of them. Skin wound was then close with wound clips. The right side (i.e., the contralateral side) was not surgically injured. After recovery from surgery, rats showing post-surgery neurological deficits or poor grooming were excluded from the experiments. This surgical procedure (i.e., chronic constrictive injury, CCI, or Bennett model) to establish mononeuropathic pain disease model has been described elsewhere (Bennett, G. J. and Xie, Y. K.: A peripheral mononeuropathy in rat that produces disorders of pain sensation like those seen in man. Pain, 33: 87-107, 1988).
On days 1, 3, 4, 7, 9, 11, and 14 after surgery, animals were tested for mechanical allodynia with von Frey filaments as described previously. On or around post-surgical day 14, the ipsilateral hind paw, felt to 5 grams, an indication of allodynia began to manifest mechanical allodynia (i.e., amplified response to non-painful tactile stimulation by von Frey filaments). The contralateral hind paws remained above the 5-gram level (i.e., no allodynia).
After manifestation of this allodynia, Compound 62 (50 mg/kg, p.o.), Compound 63 (50 mg/kg, p.o.), Compound 66 (50 mg/kg, p.o.), Compound 23 (50 mg/kg, p.o.), 4-hydroxy-tempol (TEMPOL, 50 mg/kg, p.o.), or piroxicam (a COX1 inhibitor, 50 mg/kg, p.o.) were administered to randomly-assigned animals. Changes of mechanical allodynia in the ipsilateral hind paw were recorded at several time points over the course of up to 24 hr.

Row | % of Nitrone Remaining at 30 min (Rat) [1] [%] | EC50 [2] [µM] | fraction unbound at 1 μg/mL [3] | fraction unbound at 1 μg/mL [4] | Cmax [5] [ng/mL] | clearance [5] [mL/min/kg] | Vd [5] [L/kg] | Tmax [5] [min] | bioavailability [5] [%] | half-life [5] [min] | Compound | effect on carrageenan-sensitized heat hyperalgesia (in words) [6] | PWT ipsilateral hind paw (von Frey) (CCI rats; post-dosing time 30 min) [gm] | PWT ipsilateral hind paw (von Frey) (CCI rats; post-dosing time 60 min) [gm] | PWT ipsilateral hind paw (von Frey) (CCI rats; post-dosing time 300 min) [gm] | PWT ipsilateral hind paw (von Frey) (CCI rats; post-dosing time 1440 min) [gm] | PWT ipsilateral hind paw (von Frey) (CCI rats; post-dosing time −15 min (pre-dose)) [gm] | anti-allodynic effect on ipsilateral hind paw vs vehicle (in words) (CCI rats)
1 | 0 | > 1000 | – | – | – | – | – | – | – | – | CCN(CC)S(=O)(=O)c1ccccc1/C=[N+](\[O-])Cc1ccccc1 [Compound 32, N-Benzyl-C-(2-diethylsulfamoylphenyl)nitrone] | – | – | – | – | – | – | –
2 | – | 500 to 1000 | 0.781 | 0.783 | 2110 | 7.83 | 0.63 | 59.4 | 36.4 | 55.8 | CCS(=O)(=O)c1ccccc1/C=[N+](\[O-])C(C)(C)C [Compound 68, N-tert-Butyl-C-(2-ethanesulfonylphenyl)nitrone] | – | – | – | – | – | – | –
3 | – | – | – | – | – | – | – | – | – | – | COc1ccc2c(c1)c(CC(=O)O)c(C)n2C(=O)c1ccc(Cl)cc1 [indomethacin, reference compound] | significantly reversed carrageenan-sensitized heat hyperalgesia | – | – | – | – | – | –
4 | – | – | – | – | – | – | – | – | – | – | CC1(C)CC(O)CC(C)(C)N1[O] [TEMPOL, 4-hydroxy-tempol, reference compound] | – | 4.80 ± 0.49 | 4.80 ± 0.49 | 5.48 ± 1.09 | 4.80 ± 1.02 | 4.00 ± 0.89 | no significant anti-allodynic effect
5 | – | > 1000 | 0.544 | 0.484 | 108 | 31 | 1.66 | 16.8 | 5.87 | 45.6 | CC(C)(C)/[N+]([O-])=C/c1ccc(S(=O)(=O)C2CCCC2)cc1 [Compound 71, N-tert-Butyl-C-[4-(cyclopentanesulfonyl)phenyl]nitrone] | – | – | – | – | – | – | –
6 | – | > 1000 | 0.864 | 0.78 | 4760 | 1.17 | 0.42 | 79.8 | 46.4 | 266 | CCS(=O)(=O)c1ccc(/C=[N+](\[O-])C(C)(C)C)cc1 [Compound 67, N-tert-Butyl-C-(4-ethanesulfonylphenyl)nitrone] | – | – | – | – | – | – | –
7 | – | > 1000 | 0.532 | 0.755 | 1840 | 14 | 0.76 | 11.4 | 54.9 | 38.4 | CC(C)S(=O)(=O)c1ccccc1/C=[N+](\[O-])C(C)(C)C [Compound 69, N-tert-Butyl-C-[2-(2-propanesulfonyl)phenyl]nitrone] | – | – | – | – | – | – | –
8 | – | > 1000 | 0.796 | 0.718 | 1270 | 20 | 1.07 | 29.4 | 52.2 | 37.2 | CC(C)S(=O)(=O)c1ccc(/C=[N+](\[O-])C(C)(C)C)cc1 [Compound 70, N-tert-Butyl-C-[4-(2-propanesulfonyl)phenyl]nitrone] | – | – | – | – | – | – | –
9 | – | > 1000 | 0.367 | 0.319 | 1520 | 11 | 2.69 | 19.2 | 59.8 | 169 | CC(C)(C)/[N+]([O-])=C/c1ccc(C(F)(F)F)cc1S(C)(=O)=O [Compound 72, N-tert-Butyl-C-[2-methanesulfonyl-4-trifluoromethylphenyl]nitrone] | – | – | – | – | – | – | –
10 | – | – | – | – | – | – | – | – | – | – | CN1C(C(=O)Nc2ccccn2)=C(O)c2ccccc2S1(=O)=O [piroxicam, reference compound] | – | – | – | – | – | – | long-lasting anti-allodynic effect
